The values below come from patent US11970490B2, “Stable heavy isotopes in amide functional groups and uses thereof” (RISEN (SUZHOU) PHARMA TECH CO., LTD., priority 2020, dated 2024).

The conditions of data set [1]: James, A. et al., 2015; cited from earlier work.
The nature of data set [2]: Pharmacokinetic studies in Sprague Dawley (SD) rats, oral gavage, plasma. Type of data set: in vivo. Particulars: for AUC(0-t) / AUC(0-inf) / Cmax / Tmax / Vd/F: Sprague-Dawley, rat; for AUC(0-t) / AUC(0-inf) / Cmax / Tmax / Vd/F / plasma concentration at 24-h timepoint / CLz/F: oral gavage; for AUC(0-t) / AUC(0-inf) / Cmax / Tmax / Vd/F / CLz/F: plasma; for Vd/F: read-out: Vz/F; for plasma concentration at 24-h timepoint: 0.322 mg/kg. Here is the method: (a) SD rats, six in a group (n=6), were grouped randomly. Compound 1 (Alpelisib-^18O1) and Alpelisib were mixed and adjusted to 1:1 molar ratio in dosing solution (1.25 mg/mL); and the dosing solution was administered to the animals, via oral gavage, at a dose level of 2.5 mg/kg. Blood samples were collected at pre-set time points following drug administration, at 0.167, 0.5, 1, 2, 3, 4, 6, 8, and 24 hours (h). The blood samples were converted to plasma samples using standard techniques, and the latter samples were analyzed to determine the concentrations of Compound 1 and Alpelisib. In FIG. 1a, lines labelled with -o- and -Δ-represent the plasma concentrations of Alpelisib-^18O1 and Alpelisib, respectively, following oral administration of the same molar dose of Alpelisib-^18O1 and Alpelisib to the animals.
(b) Similarly, Compound 1 (Alpelisib-^18O1) and Alpelisib were administered to the animals (SD rats, n=4), via oral gavage, at a low dose (dose level of 0.322 mg/kg). Blood samples were collected at pre-set time points following drug administration, at 0.167, 0.5, 1, 2, 4, 6, 8, 10 and 24 hours (h). The blood samples were converted to plasma samples using standard techniques, and the latter samples were analyzed to determine the concentrations of Compound 1 and Alpelisib. […] In FIG. 1b, solid line and dashed line represent the plasma concentrations of Alpelisib-^18O1 and Alpelisib, respectively.

Data set [3] can be described thus: Pharmacokinetic studies in ICR mice, oral gavage, plasma. Type of data set: in vivo. The conditions noted are these: 2.5 mg/kg; for AUC(0-inf) / AUC(0-t) / Cmax / Tmax / Vd/F: mouse; for AUC(0-inf) / AUC(0-t) / Cmax / Tmax / Vd/F / CLz/F: oral gavage, 1:1 molar mix, plasma; for Vd/F: read-out: Vz/F. The procedure:
ICR mice, 48, in 6 groups (n=8), were grouped randomly. Compound 1 (Alpelisib-^18O1) and Alpelisib were mixed and adjusted to 1:1 molar ratio in dosing solution (1.25 mg/mL); and the dosing solution was administered to the animals, via oral gavage, at a dose level of 2.5 mg/kg. Blood samples were collected (a group of 8 animals for each time point) at time points, after dosing, at 0.5, 1, 2, 4, 8, and 12 h. The blood samples were converted to plasma samples using standard techniques, and the latter samples were analyzed to determine the concentrations of Compound 1 and Alpelisib. In FIG. 2, lines labelled with -o- and -Δ-represent the plasma concentrations of Alpelisib-^18O1 and Alpelisib, respectively, following oral administration of the same dose of Alpelisib-^18O1 and Alpelisib to the animals.

Data set [4] in a line: Pharmacokinetic studies in beagle dogs, single oral dose, co-administered. Type of data set: in vivo. Particulars: for Cmax / Tmax / half-life / AUC(0-t) / Vd/F: both sexes, dog, plasma; for Cmax / Tmax / half-life / AUC(0-t) / Vd/F / CLz/F: single oral dose 2.5 mg/kg each; for Cmax / Tmax / half-life / Vd/F / CLz/F: co-administered; for AUC(0-t): co-administered (total 5 mg/kg); for Vd/F: read-out: Vz/F. Here is the method: Male and female beagle dogs (n=4; 2 males and 2 females) were used in the study. A single oral dose of Alpelisib (2.5 mg/kg) and Compound 1 (^18O1-Alpelisib) (2.5 mg/kg) were co-administered (at a total dose of 5 mg/kg) in DMSO and 0.5% carboxymethyl cellulose sodium (CMC-Na) aqueous solution (5:95, v/v). Blood samples were collected for analysis of Alpelisib and ^18O1-Alpelisib at 0.25, 0.5, 1, 1.5, 2, 3, 4, 6, 8, 10, 12 and 24 h. In FIG. 4, lines labelled with -o- and -Δ- represent the plasma concentrations of Alpelisib-^18O1 and Alpelisib, respectively, following oral administration of the same dose of Alpelisib-^18O1 and Alpelisib to the animals.

Data set [5] in a line: M4 and M4-18O1 production in monkey liver S9. Type of data set: in vitro ADME. The conditions noted are these: monkey liver S9, 37° C., β-NADPH, 0-240 min, equal molar co-incubation. The procedure:
(§1) Stock solution (50 μL) containing equal molar concentration of Alpelisib and Alpelisib-^18O1 was diluted with pre-warmed (37° C., water bath) 0.1 M Tris-Acetate buffer; and the concentration of each compound in this working solution was 4.5 μM. In each incubation well were added the above working solution (50 μL) and a liver S9 solution (50 μL), mixed well. The sample was pre-incubated for 5 min, following by addition, to each well, of β-NADPH dosing solution (100 μL). The sample plate was incubated at 37° C., and analyzed at time points of 0, 15, 30, 60, and 240 min., in triplicates. Sample analysis: at a pre-set time-point, a stop solution (800 μL, acetonitrile) was added to each well; the sample was well-mixed (Vortex), and centrifuged at 12000 rpm for 5 minutes; the supernatant was transferred to analytical sample vial, and then analyzed with LC-MS/MS, for M4 and M4-^18O1. […] Liver S9 used in the experiment: (a) monkey liver S9, (b) pooled human S9, (c) mini pig liver S9, and (d) male Wistar rat Liver S9.

Data set [6] can be described thus: M4 and M4-18O1 production in pooled human S9. It counts as in vitro ADME. Particulars: pooled human S9, 37° C., β-NADPH, 0-240 min, equal molar co-incubation. Here is the method:
as §1

Data set [7] is described as follows: M4 and M4-18O1 production in mini pig liver S9. It counts as in vitro ADME. The conditions noted are these: mini pig liver S9, 37° C., β-NADPH, 0-240 min, equal molar co-incubation. Here is the method:
as §1

Data set [8] can be described thus: M4 and M4-18O1 production in male Wistar rat liver S9. Type of data set: in vitro ADME. The conditions noted are these: male Wistar rat liver S9, 37° C., β-NADPH, 0-240 min, equal molar co-incubation. Here is the method: as §1
The mark [9] stands for this setting: dose 2.5 mg/kg, 1:1 molar mix of Compound 1 and Alpelisib.

Structures are written as SMILES.

In the case of `Cc1nc(NC(=O)N2CCC[C@H]2C(=O)O)sc1-c1ccnc(C(C)(C)C(F)(F)F)c1` [Compound M4], the “biological activity of the acid metabolite” value in data set [1] was “biologically inactive”.
With `Cc1nc(NC(=O)N2CCC[C@H]2C(N)=[18O])sc1-c1ccnc(C(C)(C)C(F)(F)F)c1` [Compound 1, N-(4-methyl-5-(2-(2,2,2-trifluoro-1,1-dimethylethyl)-4-pyridinyl)-2-thiazolyl)aminocarbonyl-L-prolin-^18O-amide], the AUC(0-t) worked out at 28700 ng·h/mL in data set [2] (setting [9]), 118 ng·h/mL in data set [2] (low dose 0.322 mg/kg), 27800 ng·h/mL in data set [3] and 6680 ng·h/mL in data set [4]. For the same compound, the AUC(0-inf) was determined as 28800 ng·h/mL in data set [2] (dose 2.5 mg/kg, 1:1 molar mix); 132 ng·h/mL in data set [2] (low dose 0.322 mg/kg); 32600 ng·h/mL in data set [3]. For the same compound, the Cmax in data set [2] (dose 2.5 mg/kg, 1:1 molar mix) stood at 2390 ng/mL; in data set [2] (low dose 0.322 mg/kg), 32.6 ng/mL; in data set [3], 4520 ng/mL; in data set [4], 1470 ng/mL. Further, the Tmax stood at 3 h in data set [2] (dose 2.5 mg/kg, 1:1 molar mix); 0.875 h in data set [2] (low dose 0.322 mg/kg); 2 h in data set [3]; 1.1 h in data set [4]. For the same compound, the Vd/F in data set [2] (dose 2.5 mg/kg, 1:1 molar mix) came out at 1.66 L/kg; in data set [2] (low dose 0.322 mg/kg), 11.4 L/kg; in data set [3], 2.24 L/kg; in data set [4], 2.4 L/kg. The “plasma concentration at 24-h timepoint” value in data set [2] is listed as “below the limit of quantification”. The CLz/F in data set [2] (dose 2.5 mg/kg, 1:1 molar mix) was 7.23 mL/min/kg; in data set [2] (low dose 0.322 mg/kg), 41.7 mL/min/kg; in data set [3], 6.4 mL/min/kg; in data set [4], 6.33 mL/min/kg. Besides, the “plasma concentration compared with Alpelisib” value was “higher” in data set [2] (oral, both doses tested (2.5 and 0.322 mg/kg), greatest effect at low dose); “higher” in data set [3] (oral); “higher” in data set [4] (oral, 2.5 mg/kg each). Besides, the half-life in data set [4] was 4.5 h. Besides, the “metabolism compared to Alpelisib (M4-18O1 versus M4 production)” value in data set [5], in data set [6], in data set [7] and in data set [8] was “reduced” each time.
`Cc1nc(NC(=O)N2CCC[C@H]2C(N)=O)sc1-c1ccnc(C(C)(C)C(F)(F)F)c1` [Alpelisib, N-(4-methyl-5-(2-(2,2,2-trifluoro-1,1-dimethylethyl)-4-pyridinyl)-2-thiazolyl)aminocarbonyl-L-prolinamide, reference compound] gave an AUC(0-t) in data set [2] (setting [9]) of 26400 ng·h/mL. In addition, in data set [2] (dose 2.5 mg/kg, 1:1 molar mix), the AUC(0-inf) turned out to be 26500 ng·h/mL, the Cmax came out at 2300 ng/mL, the Tmax was found to be 3 h and the Vd/F is 1.8 L/kg. The compound also came in with a CLz/F in data set [2] (dose 2.5 mg/kg, 1:1 molar mix) of 7.87 mL/min/kg. Further, in data set [2] (low dose 0.322 mg/kg), the AUC(0-inf) was 80.3 ng·h/mL, the AUC(0-t) was found to be 75.2 ng·h/mL, the Cmax is 28.1 ng/mL and the Tmax turned out to be 0.625 h. Besides, in data set [2] (low dose 0.322 mg/kg), the Vd/F stood at 13.1 L/kg and the CLz/F stood at 68.3 mL/min/kg. In addition, in data set [2], the “plasma concentration at 24-h timepoint” value is recorded as “below the limit of quantification”. In data set [3], the AUC(0-inf) was 30600 ng·h/mL, the exposure AUC(0-t) was 26200 ng·h/mL, the Cmax stood at 4210 ng/mL and the Tmax was 2 h. Besides, in data set [3], the Vd/F came out at 2.37 L/kg and the CLz/F worked out at 6.82 mL/min/kg. For the same compound, in data set [4], the Cmax amounted to 931 ng/mL, the time to peak (Tmax) stood at 1.2 h, the half-life was 5.4 h and the exposure AUC(0-t) was determined as 6120 ng·h/mL. Moreover, in data set [4], the Vd/F came out at 3 L/kg and the CLz/F was 6.83 mL/min/kg.
